In patent US20240270809A1, “ORAL GLP RECEPTOR AGONISTS” (priority 2020, published 2024):
Like-named read-outs stand apart in the source and are kept apart here. Positions of bridges follow the written chain, without caps; N, C: chain ends. Non-standard residues stand in square brackets, D forms with d. Residues, ends and D or L forms follow the SMILES beside them. *: point of attachment. Malonyl(2,2-Me2,histaminyl) = CC(C)(C(=O)NCCc1cnc[nH]1)C(=O)*; Ala(1H-tetrazol-5-yl) = N[C@@H](Cc1nnn[nH]1)C(=O)O; Nle = CCCC[C@H](N)C(=O)O; Aib = CC(C)(N)C(=O)O

Legend:
Type in all cases: cell-based
mouse GLP2 receptor = target: T1, mouse GLP2 receptor (Mus musculus, UniProt Q5IXF8); assay: cAMP accumulation assay, functional agonism of mouse GLP2 receptor
T1 construct: expressed in transfected cells; host or cells: HEK cells, transient transfection with GeneJuice
T1 sequence (Q5IXF8 1-512): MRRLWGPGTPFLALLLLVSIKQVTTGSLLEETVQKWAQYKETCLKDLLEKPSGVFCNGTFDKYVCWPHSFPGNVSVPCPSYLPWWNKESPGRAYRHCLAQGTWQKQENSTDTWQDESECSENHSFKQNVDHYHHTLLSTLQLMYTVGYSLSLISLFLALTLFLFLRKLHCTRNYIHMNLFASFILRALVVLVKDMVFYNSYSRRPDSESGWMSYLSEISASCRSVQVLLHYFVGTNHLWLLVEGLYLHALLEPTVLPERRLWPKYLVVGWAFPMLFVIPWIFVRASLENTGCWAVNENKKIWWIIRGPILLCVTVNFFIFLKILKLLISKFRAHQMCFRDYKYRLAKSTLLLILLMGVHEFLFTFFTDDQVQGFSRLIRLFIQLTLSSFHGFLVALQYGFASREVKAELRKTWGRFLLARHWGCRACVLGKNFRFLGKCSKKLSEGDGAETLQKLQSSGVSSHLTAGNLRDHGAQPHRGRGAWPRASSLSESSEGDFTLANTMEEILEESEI
Procedure: CAMP production upon agonist stimulation of mouse GLP2 or GLP1 receptors was assessed utilizing HiRange cAMP kit (Cisbio). In brief, HEK cells were transiently transfected for 24 hours with cDNA using GeneJuice Transfection reagent (EMD Millipore) and frozen at −80° C. for later use in the assay. On the day, various concentrations of compounds were dispensed using ECHO-555 (LabCyte) to a total volume of 100 nl into a low volume 384-well Proxi plate (Perkin Elmer) followed by addition of 10 μl of cell suspension delivering 8000 cells per well. Cells were prepared in the assay buffer (HBSS (Lonza) supplemented with 0.5 mM IBMX (Tocris)). After 45 min incubation at 37° C., the reaction was stopped by addition of the HTRF detection reagents in the lysis buffer provided in the kit. Following 1-hour incubation at RT, plates were read on Pherastar FS (BMG Labtech, Inc.) using standard HTRF settings. Dotmatics Studies software was used for calculation of pEC50 values by fitting data to a four-parameter concentration response curve.

human GLP2 receptor = target: T2, human GLP2 receptor (Homo sapiens, UniProt O95838); assay: cAMP accumulation assay, functional agonism of human GLP2 receptor; conditions: HEK cells infected with human GLP2 receptor BacMam virus, HTRF cAMP; for Emax: HEK293, read-out: Human GLP-2R agonist cAMP Emax; for EC50: read-out: Human GLP-2R agonist cAMP pEC50 (converted)
T2 construct: expressed in transfected cells; host or cells: HEK cells, BacMam virus transduction
T2 sequence (O95838 1-553): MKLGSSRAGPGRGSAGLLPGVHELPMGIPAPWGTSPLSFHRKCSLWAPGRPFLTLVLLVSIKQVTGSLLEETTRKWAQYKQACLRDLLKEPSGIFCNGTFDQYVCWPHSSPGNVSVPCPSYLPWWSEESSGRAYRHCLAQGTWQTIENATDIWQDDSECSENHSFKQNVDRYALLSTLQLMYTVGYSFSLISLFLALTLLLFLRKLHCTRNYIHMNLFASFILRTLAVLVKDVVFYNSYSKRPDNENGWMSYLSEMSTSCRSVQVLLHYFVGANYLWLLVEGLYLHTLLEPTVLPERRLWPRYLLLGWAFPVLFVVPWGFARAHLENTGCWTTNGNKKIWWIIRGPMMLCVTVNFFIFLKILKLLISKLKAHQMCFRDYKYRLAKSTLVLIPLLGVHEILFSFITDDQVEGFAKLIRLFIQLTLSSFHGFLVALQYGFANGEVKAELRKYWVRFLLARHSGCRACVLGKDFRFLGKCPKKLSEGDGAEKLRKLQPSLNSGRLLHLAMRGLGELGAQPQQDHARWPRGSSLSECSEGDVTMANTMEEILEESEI
Method in brief: (§1)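 Frozen HEK cells, previously BacMam-infected 24 h to express either receptor, are stimulated for 45 min at 37° C in IBMX-containing (0.5 mM) HBSS. The reaction is then terminated with HTRF reagents in lysis buffer.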

human GLP1 receptor = target: T3, human GLP1 receptor (Homo sapiens, UniProt P43220); assay: cAMP accumulation assay, functional agonism of human GLP1 receptor; conditions: HEK cells infected with human GLP1 receptor BacMam virus, HTRF cAMP; for Emax: HEK293, read-out: Human GLP-1R agonist cAMP Emax; for EC50: read-out: Human GLP-1R agonist cAMP pEC50 (converted)
T3 construct: expressed in transfected cells; host or cells: HEK cells, BacMam virus transduction
T3 sequence (P43220 24-463): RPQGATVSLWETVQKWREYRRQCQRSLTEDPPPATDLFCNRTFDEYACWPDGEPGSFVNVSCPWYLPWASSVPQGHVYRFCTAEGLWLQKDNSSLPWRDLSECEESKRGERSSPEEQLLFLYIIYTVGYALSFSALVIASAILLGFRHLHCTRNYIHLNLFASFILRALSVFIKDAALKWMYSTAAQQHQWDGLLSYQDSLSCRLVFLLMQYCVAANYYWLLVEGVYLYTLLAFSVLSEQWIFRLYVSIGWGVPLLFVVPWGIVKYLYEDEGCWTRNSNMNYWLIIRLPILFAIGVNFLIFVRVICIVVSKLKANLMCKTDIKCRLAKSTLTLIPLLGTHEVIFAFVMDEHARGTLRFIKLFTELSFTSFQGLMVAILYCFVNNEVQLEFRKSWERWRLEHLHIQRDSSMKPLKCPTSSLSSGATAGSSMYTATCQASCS
Method in brief: as §1

[1] = HEK293, HEK cells transiently transfected with mouse GLP2 receptor, HTRF cAMP, read-out: Mouse GLP-2R agonist cAMP Emax
[2] = HEK cells transiently transfected with mouse GLP2 receptor, HTRF cAMP, read-out: Mouse GLP-2R agonist cAMP pEC50 (converted)

Row | Structure (SMILES) | Emax (mouse GLP2 receptor; [1]) [%] | EC50 (mouse GLP2 receptor; [2]) [nM] | Emax (human GLP2 receptor) [%] | EC50 (human GLP2 receptor) [nM] | Emax (human GLP1 receptor) [%] | EC50 (human GLP1 receptor) [nM] | EC50 (mouse GLP2 receptor) [nM] | Emax (mouse GLP2 receptor; HEK293, read-out: Mouse GLP-2R agonist cAMP Emax) [%]
1 | CCCC[C@H](NC(=O)[C@H](CCC(=O)O)NC(=O)[C@@H]1CCCCNC(=O)CC[C@H](NC(=O)[C@H](CC(=O)O)NC(=O)C(C)(C)NC(=O)[C@@H](N)Cc2c[nH]cn2)C(=O)N[C@@H](CO)C(=O)N[C@@H](Cc2ccccc2)C(=O)N[C@@H](CO)C(=O)N1)C(=O)N[C@H](Cc1ccccc1)C(=O)N[C@H]1CCC(=O)NCCCC[C@@H](C(=O)N[C@H]2CCCCNC(=O)C[C@@H](C(=O)N[C@@H](Cc3ccccc3)C(=O)N[C@H](C(=O)N[C@H]3CCC(=O)NCCCC[C@@H](C(=O)N[C@H]4CCCCNC(=O)CC[C@@H](C(N)=O)NC(=O)[C@H]([C@@H](C)O)NC(=O)[C@H]([C@@H](C)CC)NC(=O)[C@H](CCCCN)NC4=O)NC(=O)[C@H]([C@@H](C)CC)NC(=O)[C@H](CC(C)C)NC(=O)[C@H](Cc4c[nH]c5ccccc45)NC3=O)[C@@H](C)CC)NC(=O)[C@H](CCCCN)NC(=O)[C@H](C)NC(=O)[C@H](C)NC2=O)NC(=O)[C@H](CC(=O)O)NC(=O)[C@H](CC(C)C)NC(=O)[C@H]([C@@H](C)CC)NC1=O [Example 75] (H-H[Aib]DESFSKE[Nle][dF]EILDKKAAKDFIEWLIKKKITE-NH2; lactam 4-8, 12-16, 17-21, 24-28, 29-33 (inferred); C-terminus assumed) | 81.9 | 6.31 | 102 | 0.0398 | 95 | 0.631 |  | 
2 | CCCC[C@@H]1NC(=O)[C@H](CCC(=O)O)NC(=O)[C@H](CC(=O)O)NC(=O)[C@@H](NC(=O)[C@H](Cc2ccccc2)NC(=O)[C@H](CO)NC(=O)CNC(=O)[C@H](CC(=O)O)NC(=O)C(C)(C)NC(=O)[C@@H](N)Cc2c[nH]cn2)CCC(=O)NCCCC[C@@H](C(=O)N[C@H]2CCC(=O)NCCCC[C@@H](C(=O)N[C@H]3CCC(=O)NCCCC[C@@H](C(=O)N[C@@H](CC(=O)O)C(=O)N[C@@H](Cc4ccccc4)C(=O)N[C@H](C(=O)N[C@H]4CCC(=O)NCCCC[C@@H](C(=O)N[C@H]5CCCCNC(=O)CC[C@@H](C(N)=O)NC(=O)[C@H]([C@@H](C)O)NC(=O)[C@H]([C@@H](C)CC)NC(=O)[C@H](CCCCN)NC5=O)NC(=O)[C@H]([C@@H](C)CC)NC(=O)[C@H](CC(C)C)NC(=O)[C@H](Cc5c[nH]c6ccccc56)NC4=O)[C@@H](C)CC)NC(=O)[C@H](C)NC(=O)[C@H](C)NC3=O)NC(=O)[C@H](CC(=O)O)NC(=O)[C@H](CC(C)C)NC(=O)[C@H]([C@@H](C)CC)NC2=O)NC1=O [Example 76] (H-H[Aib]DGSFEDE[Nle]KEILDKEAAKDFIEWLIKKKITE-NH2; lactam 7-11, 12-16, 17-20, 24-28, 29-33 (inferred)) |  |  | 102 | 0.0126 | 94.9 | 1 | 1.26 | 102
3 | CCCC[C@@H]1NC(=O)[C@H](CCC(=O)O)NC(=O)[C@H](CC(=O)O)NC(=O)[C@@H](NC(=O)[C@H](Cc2ccccc2)NC(=O)[C@H](CO)NC(=O)CNC(=O)[C@H](CC(=O)O)NC(=O)C(C)(C)NC(=O)[C@@H](N)Cc2c[nH]cn2)CCC(=O)NCCCC[C@@H](C(=O)N[C@H]2CCC(=O)NCCCC[C@@H](C(=O)N[C@H]3CCCCNC(=O)C[C@@H](C(=O)N[C@@H](Cc4ccccc4)C(=O)N[C@H](C(=O)N[C@H]4CCC(=O)NCCCC[C@@H](C(=O)N[C@H]5CCCCNC(=O)CC[C@@H](C(N)=O)NC(=O)[C@H]([C@@H](C)O)NC(=O)[C@H]([C@@H](C)CC)NC(=O)[C@H](CCCCN)NC5=O)NC(=O)[C@H]([C@@H](C)CC)NC(=O)[C@H](CC(C)C)NC(=O)[C@H](Cc5c[nH]c6ccccc56)NC4=O)[C@@H](C)CC)NC(=O)[C@H](CCCCN)NC(=O)[C@H](C)NC(=O)[C@H](C)NC3=O)NC(=O)[C@H](CC(=O)O)NC(=O)[C@H](CC(C)C)NC(=O)[C@H]([C@@H](C)CC)NC2=O)NC1=O [Example 77] (H-H[Aib]DGSFEDE[Nle]KEILDKKAAKDFIEWLIKKKITE-NH2; lactam 7-11, 12-16, 17-21, 24-28, 29-33; N-terminus and C-terminus assumed) | 102 | 3.16 | 102 | 0.0631 | 97.1 | 0.501 |  | 

Continued, in another order:

Row | Emax (mouse GLP2 receptor; [1]) [%] | EC50 (mouse GLP2 receptor; [2]) [nM] | Emax (human GLP2 receptor) [%] | EC50 (human GLP2 receptor) [nM] | Emax (human GLP1 receptor) [%] | EC50 (human GLP1 receptor) [nM] | Structure (SMILES) | EC50 (mouse GLP2 receptor) [nM] | Emax (mouse GLP2 receptor; HEK293, read-out: Mouse GLP-2R agonist cAMP Emax) [%]
4 | 83.1 | 2 | 103 | 0.0251 | 95.5 | 0.251 | CCCC[C@H](NC(=O)[C@H](CCC(=O)O)NC(=O)[C@@H]1CCCCNC(=O)CC[C@H](NC(=O)[C@H](Cc2nn[nH]n2)NC(=O)C(C)(C)C(=O)NCCc2c[nH]cn2)C(=O)N[C@@H](CO)C(=O)N[C@@H](Cc2ccccc2)C(=O)N[C@@H](CO)C(=O)N1)C(=O)N[C@H](Cc1ccccc1)C(=O)N[C@H]1CCC(=O)NCCCC[C@@H](C(=O)N[C@H]2CCC(=O)NCCCC[C@@H](C(=O)N[C@@H](CC(=O)O)C(=O)N[C@@H](Cc3ccccc3)C(=O)N[C@H](C(=O)N[C@H]3CCC(=O)NCCCC[C@@H](C(=O)N[C@H]4CCCCNC(=O)CC[C@@H](C(N)=O)NC(=O)[C@H]([C@@H](C)O)NC(=O)[C@H]([C@@H](C)CC)NC(=O)[C@H](CCCCN)NC4=O)NC(=O)[C@H]([C@@H](C)CC)NC(=O)[C@H](CC(C)C)NC(=O)[C@H](Cc4c[nH]c5ccccc45)NC3=O)[C@@H](C)CC)NC(=O)[C@H](C)NC(=O)[C@H](C)NC2=O)NC(=O)[C@H](CC(=O)O)NC(=O)[C@H](CC(C)C)NC(=O)[C@H]([C@@H](C)CC)NC1=O [Example 78] |  | 
5 | 74.2 | 3.16 | 103 | 0.0316 | 97.3 | 0.251 | CCCC[C@H](NC(=O)[C@H](CCC(=O)O)NC(=O)[C@@H]1CCCCNC(=O)CC[C@H](NC(=O)[C@H](Cc2nn[nH]n2)NC(=O)C(C)(C)C(=O)NCCc2c[nH]cn2)C(=O)N[C@@H](CO)C(=O)N[C@@H](Cc2ccccc2)C(=O)N[C@@H](CO)C(=O)N1)C(=O)N[C@H](Cc1ccccc1)C(=O)N[C@H]1CCC(=O)NCCCC[C@@H](C(=O)N[C@H]2CCCCNC(=O)C[C@@H](C(=O)N[C@@H](Cc3ccccc3)C(=O)N[C@H](C(=O)N[C@H]3CCC(=O)NCCCC[C@@H](C(=O)N[C@H]4CCCCNC(=O)CC[C@@H](C(N)=O)NC(=O)[C@H]([C@@H](C)O)NC(=O)[C@H]([C@@H](C)CC)NC(=O)[C@H](CCCCN)NC4=O)NC(=O)[C@H]([C@@H](C)CC)NC(=O)[C@H](CC(C)C)NC(=O)[C@H](Cc4c[nH]c5ccccc45)NC3=O)[C@@H](C)CC)NC(=O)[C@H](CCCCN)NC(=O)[C@H](C)NC(=O)[C@H](C)NC2=O)NC(=O)[C@H](CC(=O)O)NC(=O)[C@H](CC(C)C)NC(=O)[C@H]([C@@H](C)CC)NC1=O [Example 79] ({Malonyl(2,2-Me2,histaminyl)}-[Ala(1H-tetrazol-5-yl)]ESFSKE[Nle][dF]EILDKKAAKDFIEWLIKKKITE-NH2; lactam 2-6, 10-14, 15-19, 22-26, 27-31 (inferred); C-terminus assumed) |  | 
